Among the test systems are DU-145 prostate; M14 melanoma; MDA-MB-231 breast; NCI-H226 lung; NCI-H460 lung; NCI-H522 lung; SNB-75 CNS; SW-620 colon; TK-10 renal; UACC-257 melanoma.
What all share (assay): growth of human tumour cells (NCI), 48 h

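1) Cells in 96-well plates. 2) Compound, 48 h, 5 concentrations. 3) Linear interpolation between surrounding doses. 4) Unreached endpoint = highest concentration. TGI: total growth inhibition.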

For the molecule `COCCOCCOC1=CC(=O)c2c(O)ccc(O)c2C1=O`, the TGI was determined as 2.82 µM with DU-145 prostate; 2.14 µM in the test on M14 melanoma; 2.83 µM with MDA-MB-231 breast; 3.88 µM in the test on NCI-H226 lung; 3.47 µM in the test with NCI-H460 lung; 2.93 µM in the test with NCI-H522 lung. Besides, the TGI came out at 3.28 µM with SNB-75 CNS, 1.72 µM with SW-620 colon, 4.51 µM in the test on TK-10 renal and 1.43 µM with UACC-257 melanoma.

Regarding `CCOP(=O)(/C=C\n1ccc(N)nc1=O)OCC`, the TGI with DU-145 prostate, with M14 melanoma, with MDA-MB-231 breast, in the test on NCI-H226 lung, in the test on NCI-H460 lung and with NCI-H522 lung was more than 100 µM each time. The TGI in the test with SNB-75 CNS, in the test with SW-620 colon, in the test with TK-10 renal and in the test with UACC-257 melanoma was more than 100 µM throughout.

As for `N#Cc1nc(C2CCC2)oc1N`, the TGI in the test on DU-145 prostate, in the test with M14 melanoma, with MDA-MB-231 breast, in the test with NCI-H226 lung, with NCI-H460 lung and in the test with NCI-H522 lung was more than 100 µM throughout. In addition, the TGI in the test on SNB-75 CNS, in the test with SW-620 colon, in the test on TK-10 renal and in the test on UACC-257 melanoma was more than 100 µM throughout.

With `COc1ccc(-c2cc(-c3ccccc3)[nH]c(=S)c2C#N)cc1`, the TGI in the test with DU-145 prostate was more than 100 µM; with M14 melanoma, 94 µM; with MDA-MB-231 breast, more than 100 µM; in the test with NCI-H226 lung it was 96.2 µM; in the test on NCI-H460 lung, 81.7 µM; with NCI-H522 lung it was more than 100 µM. Further, the TGI in the test on SNB-75 CNS is 88.1 µM; with SW-620 colon, more than 100 µM; with TK-10 renal it was more than 100 µM.

Turning to `COc1cc2ccc1OCc1cccc(n1)COc1ccc(cc1OC)C=Nc1ccc(cc1)N=C2`, the TGI with DU-145 prostate, in the test on M14 melanoma, in the test with MDA-MB-231 breast, with NCI-H226 lung, in the test on NCI-H460 lung and in the test on NCI-H522 lung was more than 100 µM each time. In addition, the TGI in the test with SNB-75 CNS, with SW-620 colon, in the test on TK-10 renal and with UACC-257 melanoma was more than 100 µM throughout.

For `O=c1cc(-c2cc(O)c(O)c(-c3c(O)cc4oc(-c5ccc(O)c(O)c5)cc(=O)c4c3O)c2)oc2cc(O)cc(O)c12`, the TGI in the test on DU-145 prostate, with M14 melanoma, in the test with MDA-MB-231 breast, in the test with NCI-H226 lung, in the test with NCI-H460 lung and with SNB-75 CNS was more than 25 µM throughout. Besides, the TGI in the test with SW-620 colon, in the test on TK-10 renal and in the test with UACC-257 melanoma was more than 25 µM each time.

For the molecule `COC(=O)c1cc(C#N)[nH]c1-c1cc(Br)cs1`, the TGI in the test on DU-145 prostate was 43.1 µM; in the test with M14 melanoma, 27.7 µM; in the test with MDA-MB-231 breast, 51.7 µM; in the test on NCI-H226 lung, 49.4 µM; in the test with NCI-H460 lung, 54.5 µM; with NCI-H522 lung, 13.3 µM. Also, the TGI with SNB-75 CNS is 22.6 µM; in the test with SW-620 colon it was 40.2 µM; with TK-10 renal, 57.1 µM; in the test with UACC-257 melanoma it was 28.9 µM.

For `O=c1[nH]nc(Cc2ccccc2)n1/N=C/c1ccncc1`, the TGI in the test with DU-145 prostate, with M14 melanoma, with MDA-MB-231 breast, in the test on NCI-H226 lung, in the test on NCI-H460 lung and in the test on NCI-H522 lung was more than 100 µM each time. The TGI in the test on SNB-75 CNS, in the test with SW-620 colon, with TK-10 renal and in the test on UACC-257 melanoma was more than 100 µM in each case.

In the case of `COc1cc2c(c(O)c1OC)C(=O)C(Cc1ccc(O)cc1)CO2` (stereo unspecified), the TGI was more than 100 µM in the test on DU-145 prostate; 84 µM in the test on M14 melanoma; 77.4 µM in the test with MDA-MB-231 breast; more than 100 µM in the test with NCI-H226 lung; more than 100 µM with NCI-H460 lung; 15.3 µM in the test with NCI-H522 lung. In addition, the TGI is 81.4 µM in the test on SNB-75 CNS, more than 100 µM with SW-620 colon, more than 100 µM in the test with TK-10 renal and more than 100 µM in the test on UACC-257 melanoma.

As to `C[C@H]1SC(c2ccc(Cl)cc2Cl)N(NC(=O)c2ccncc2)C1=O` (stereo partly specified), the TGI with DU-145 prostate is more than 100 µM; with M14 melanoma, 69.9 µM; with MDA-MB-231 breast, more than 100 µM; in the test on NCI-H226 lung, 76.6 µM; in the test with NCI-H460 lung it was more than 100 µM; in the test on NCI-H522 lung it was 60.5 µM. Also, the TGI in the test with SNB-75 CNS is more than 100 µM.

Regarding `Cc1ccc(C2=CC(=O)/C(=C\C(=O)c3ccc(Cl)cc3)O2)cc1`, the TGI in the test with DU-145 prostate was found to be 87.1 µM; in the test on M14 melanoma, 39.3 µM; with MDA-MB-231 breast it was 25.1 µM; in the test on NCI-H226 lung it was 40 µM; in the test on NCI-H522 lung, 4.99 µM; in the test with SNB-75 CNS it was 74.5 µM. The TGI with SW-620 colon was found to be 6.95 µM; in the test with TK-10 renal, 9.67 µM; with UACC-257 melanoma it was 4.75 µM.

`COc1c(O)c2c(=O)cc(OC)c3c4c(OC)cc(=O)c5c(O)c(OC)c6c(c(c1C(C(C)O)C6C(C)O)c23)c54` (stereo unspecified): the TGI in the test with DU-145 prostate was found to be 8.14 µM; in the test with M14 melanoma, 2.34 µM; in the test on MDA-MB-231 breast, 5.48 µM; in the test on NCI-H226 lung, 5.46 µM; with NCI-H460 lung, 1.18 µM; with NCI-H522 lung it was 3.82 µM. The TGI amounted to 2.89 µM in the test with SNB-75 CNS, 4.33 µM in the test with SW-620 colon and 4.66 µM with TK-10 renal.

Take `O=c1cc(-c2ccccc2)oc2c(-c3cc(Cl)cc4c(=O)cc(-c5ccccc5)oc34)cc(Cl)cc12`: the TGI with DU-145 prostate was more than 100 µM; in the test with M14 melanoma, more than 100 µM; in the test on MDA-MB-231 breast it was more than 100 µM; in the test with NCI-H226 lung, 83 µM; in the test on NCI-H460 lung, more than 100 µM; in the test with NCI-H522 lung, 55.3 µM. The TGI in the test on SNB-75 CNS is 94 µM; in the test with SW-620 colon, more than 100 µM; with TK-10 renal, more than 100 µM.

With `O=c1[nH]c(=O)n(C2CC(O)C(CO)O2)cc1OCc1ccccc1` (stereo unspecified), the TGI in the test on DU-145 prostate, in the test on M14 melanoma, in the test on MDA-MB-231 breast, in the test on NCI-H226 lung, in the test with NCI-H460 lung and with NCI-H522 lung was more than 100 µM in each case. For the same molecule, the TGI with SNB-75 CNS, with TK-10 renal and in the test with UACC-257 melanoma was more than 100 µM throughout.
